Results published in PubChem BioAssay AID2060613 (Molecular Pharmacology Branch, DTP, NCI, 2025).
Values joined by “and” are separate entries in the source; they are usually repeats but may differ in a detail not shown here. Identical values can stand only once.

Tested on: 233499-124-R-J3-PDC complex spheroid viability
Assay: Anticancer human tumor 233499-124-R-J3-PDC patient-derived colon adenocarcinoma cell line growth inhibition [CLK]
Settings: for viability, T/C: stronger effect = lower value
In short: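 Multi-cell-type spheroids combined patient-derived tumor cells with HUVEC endothelial cells and human mesenchymal stem cells. Paired agents were dosed in half-log steps down from about clinical Cmax, or from 10 microM where Cmax was unknown.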

[1] = curve of first compound, second compound 0.0316 µM
[2] = curve of first compound, second compound 0.1 µM
[3] = curve of first compound, second compound 0.316 µM
[4] = curve of first compound, second compound 1 µM
[5] = curve of first compound, second compound 3.16 µM
[6] = curve of first compound, second compound 10 µM
[7] = second compound 0.0316 µM, first compound 0.0316 µM
[8] = second compound 0.0316 µM, first compound 0.1 µM
[9] = second compound 0.0316 µM, first compound 0.316 µM
[10] = second compound 0.0316 µM, first compound 1 µM
[11] = second compound 0.0316 µM, first compound 3.16 µM
[12] = second compound 0.0316 µM, first compound 10 µM
[13] = second compound 0.1 µM, first compound 0.0316 µM
[14] = second compound 0.1 µM, first compound 0.1 µM
[15] = second compound 0.1 µM, first compound 0.316 µM
[16] = second compound 0.1 µM, first compound 1 µM
[17] = second compound 0.1 µM, first compound 3.16 µM
[18] = second compound 0.1 µM, first compound 10 µM
[19] = second compound 0.316 µM, first compound 0.0316 µM
[20] = second compound 0.316 µM, first compound 0.1 µM
[21] = second compound 0.316 µM, first compound 0.316 µM
[22] = second compound 0.316 µM, first compound 1 µM
[23] = second compound 0.316 µM, first compound 3.16 µM
[24] = second compound 0.316 µM, first compound 10 µM
[25] = second compound 1 µM, first compound 0.0316 µM
[26] = second compound 1 µM, first compound 0.1 µM
[27] = second compound 1 µM, first compound 0.316 µM
[28] = second compound 1 µM, first compound 1 µM
[29] = second compound 1 µM, first compound 3.16 µM
[30] = second compound 1 µM, first compound 10 µM
[31] = second compound 3.16 µM, first compound 0.0316 µM
[32] = second compound 3.16 µM, first compound 0.1 µM
[33] = second compound 3.16 µM, first compound 0.316 µM
[34] = second compound 3.16 µM, first compound 1 µM
[35] = second compound 3.16 µM, first compound 3.16 µM
[36] = second compound 3.16 µM, first compound 10 µM
[37] = second compound 10 µM, first compound 0.0316 µM
[38] = second compound 10 µM, first compound 0.1 µM
[39] = second compound 10 µM, first compound 0.316 µM
[40] = second compound 10 µM, first compound 1 µM
[41] = second compound 10 µM, first compound 3.16 µM
[42] = second compound 10 µM, first compound 10 µM
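Further: spheroids exposed to the drug combinations for seven days.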
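Wherever viability, T/C is given: percent viability relative to DMSO vehicle control wells taken as 100%.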

## CCCS(=O)(=O)Nc1ccc(F)c(C(=O)c2c[nH]c3ncc(-c4ccc(Cl)cc4)cc23)c1F + CNC(=O)c1ccc(Nc2nc(OC3CCCC3)c3c(-c4ccc5nc(C)oc5c4)c[nH]c3n2)c(OC)c1
[1]
  IC50: > 10 µM
[2]
  IC50: > 10 µM
[3]
  IC50: 8.4 µM
[4]
  IC50: 5.87 µM
[5]
  IC50: 5.07 µM
[6]
  IC50: 4.15 µM
[7]
  viability, T/C: 89.6%
[8]
  viability, T/C: 96.5%
[9]
  viability, T/C: 103%
[10]
  viability, T/C: 102%
[11]
  viability, T/C: 97.9%
[12]
  viability, T/C: 64.9%
[13]
  viability, T/C: 75.7%
[14]
  viability, T/C: 86.8%
[15]
  viability, T/C: 82.2%
[16]
  viability, T/C: 86.8%
[17]
  viability, T/C: 85.5%
[18]
  viability, T/C: 50%
[19]
  viability, T/C: 75.9%
[20]
  viability, T/C: 87.4%
[21]
  viability, T/C: 90.6%
[22]
  viability, T/C: 90.3%
[23]
  viability, T/C: 90.3%
[24]
  viability, T/C: 43.4%
[25]
  viability, T/C: 90.1%
[26]
  viability, T/C: 90.5%
[27]
  viability, T/C: 78.7%
[28]
  viability, T/C: 85.3%
[29]
  viability, T/C: 91%
[30]
  viability, T/C: 18%
[31]
  viability, T/C: 76.1%
[32]
  viability, T/C: 90.1%
[33]
  viability, T/C: 84.6%
[34]
  viability, T/C: 83.6%
[35]
  viability, T/C: 76.5%
[36]
  viability, T/C: 11.9%
[37]
  viability, T/C: 76.7%
[38]
  viability, T/C: 78.4%
[39]
  viability, T/C: 79.2%
[40]
  viability, T/C: 81.3%
[41]
  viability, T/C: 60.9%
[42]
  viability, T/C: 14.6%

## C#Cc1c(F)ccc2cc(O)cc(-c3ncc4c(N5CC6CCC(C5)N6)nc(OCC56CCCN5CC(F)C6)nc4c3F)c12 (stereo unspecified)
Compound 0.0316 µM
  viability, T/C: 86.1% and 87.7%
Compound 0.1 µM
  viability, T/C: 102% and 104%
Compound 0.316 µM
  viability, T/C: 95.6% and 105%
Compound 1 µM
  viability, T/C: 92% and 87.8%
Compound 3.16 µM
  viability, T/C: 89.5% and 79%
Compound 10 µM
  viability, T/C: 76.6% and 78.5%
Curve of compound
  IC50: > 10 µM

## CCCS(=O)(=O)Nc1ccc(F)c(C(=O)c2c[nH]c3ncc(-c4ccc(Cl)cc4)cc23)c1F + CN1CCN(c2cc(C(=O)Nc3cc4cc(-c5cnn(C)c5)ccc4cn3)ccn2)CC1
[1]
  IC50: > 10 µM
[2]
  IC50: > 10 µM
[3]
  IC50: 8.04 µM
[4]
  IC50: < 0.0316 µM
[5]
  IC50: < 0.0316 µM
[6]
  IC50: < 0.0316 µM
[7]
  viability, T/C: 103%
[8]
  viability, T/C: 98.2%
[9]
  viability, T/C: 101%
[10]
  viability, T/C: 99.8%
[11]
  viability, T/C: 97.2%
[12]
  viability, T/C: 92.4%
[13]
  viability, T/C: 98.5%
[14]
  viability, T/C: 103%
[15]
  viability, T/C: 103%
[16]
  viability, T/C: 106%
[17]
  viability, T/C: 109%
[18]
  viability, T/C: 92.2%
[19]
  viability, T/C: 96.7%
[20]
  viability, T/C: 96.9%
[21]
  viability, T/C: 91.8%
[22]
  viability, T/C: 89.3%
[23]
  viability, T/C: 99.9%
[24]
  viability, T/C: 39.5%
[25]
  viability, T/C: 1.29%
[26]
  viability, T/C: 4.3%
[27]
  viability, T/C: 5.03%
[28]
  viability, T/C: 0.45%
[29]
  viability, T/C: 0.8%
[30]
  viability, T/C: 1.4%
[31]
  viability, T/C: 0.42%
[32]
  viability, T/C: 0.62%
[33]
  viability, T/C: 1.12%
[34]
  viability, T/C: 0.53%
[35]
  viability, T/C: 0.63%
[36]
  viability, T/C: 0.92%
[37]
  viability, T/C: 0.24%
[38]
  viability, T/C: 0.32%
[39]
  viability, T/C: 1.24%
[40]
  viability, T/C: 0.33%
[41]
  viability, T/C: 0.36%
[42]
  viability, T/C: 0.85%

## COC1C=CCC(C)C(C)S(=O)(=O)NC(=O)c2ccc3c(c2)N(CC2CCC21)CC1(CCCc2cc(Cl)ccc21)CO3 (stereo unspecified)
Compound 0.0316 µM
  viability, T/C: 101% and 96.4%
Compound 0.1 µM
  viability, T/C: 86.9% and 97.1%
Compound 0.316 µM
  viability, T/C: 74% and 90.9%
Compound 1 µM
  viability, T/C: 80.4% and 83.1%
Compound 3.16 µM
  viability, T/C: 58.9% and 76%
Compound 10 µM
  viability, T/C: 5.33% and 8.83%
Curve of compound
  IC50: 3.63 µM and 4.8 µM

## CC(Nc1ccc2c(c1)OCCn1cc(N3C(=O)OCC3C(F)F)nc1-2)C(N)=O (stereo unspecified)
Compound 0.0316 µM
  viability, T/C: 94%
Compound 0.1 µM
  viability, T/C: 83.7%
Compound 0.316 µM
  viability, T/C: 79.8%
Compound 1 µM
  viability, T/C: 74.8%
Compound 3.16 µM
  viability, T/C: 61.7%
Compound 10 µM
  viability, T/C: 51.9%
Curve of compound
  IC50: > 10 µM

## CC(CO)NC(=O)c1cc(-c2ccc(Cl)cc2)nn(-c2cnn(C)c2)c1=O (stereo unspecified) + CN1CCN(c2cc(C(=O)Nc3cc4cc(-c5cnn(C)c5)ccc4cn3)ccn2)CC1
[1]
  IC50: > 10 µM
[2]
  IC50: > 10 µM
[3]
  IC50: > 10 µM
[4]
  IC50: < 0.0316 µM
[5]
  IC50: < 0.0316 µM
[6]
  IC50: < 0.0316 µM
[7]
  viability, T/C: 97.5%
[8]
  viability, T/C: 100%
[9]
  viability, T/C: 98.1%
[10]
  viability, T/C: 92%
[11]
  viability, T/C: 98.5%
[12]
  viability, T/C: 66.4%
[13]
  viability, T/C: 86.3%
[14]
  viability, T/C: 112%
[15]
  viability, T/C: 103%
[16]
  viability, T/C: 94.2%
[17]
  viability, T/C: 94.3%
[18]
  viability, T/C: 80%
[19]
  viability, T/C: 93.3%
[20]
  viability, T/C: 94.4%
[21]
  viability, T/C: 92.2%
[22]
  viability, T/C: 94.8%
[23]
  viability, T/C: 103%
[24]
  viability, T/C: 68.9%
[25]
  viability, T/C: 1.24%
[26]
  viability, T/C: 1.01%
[27]
  viability, T/C: 6.77%
[28]
  viability, T/C: 3.75%
[29]
  viability, T/C: 6.32%
[30]
  viability, T/C: 0.66%
[31]
  viability, T/C: 0.63%
[32]
  viability, T/C: 0.7%
[33]
  viability, T/C: 0.8%
[34]
  viability, T/C: 0.74%
[35]
  viability, T/C: 0.73%
[36]
  viability, T/C: 0.73%
[37]
  viability, T/C: 0.53%
[38]
  viability, T/C: 0.48%
[39]
  viability, T/C: 1.5%
[40]
  viability, T/C: 0.55%
[41]
  viability, T/C: 0.5%
[42]
  viability, T/C: 0.6%

## COc1ccc([C@@H](O)c2cc(-c3ncnc4cc(N5CCOCC5)ccc34)c(F)cc2Cl)nn1
Compound 0.0316 µM
  viability, T/C: 103% and 84.3%
Compound 0.1 µM
  viability, T/C: 106% and 94.1%
Compound 0.316 µM
  viability, T/C: 109% and 95.4%
Compound 1 µM
  viability, T/C: 99.8% and 91.2%
Compound 3.16 µM
  viability, T/C: 96.1% and 92.5%
Compound 10 µM
  viability, T/C: 83.5% and 79.1%
Curve of compound
  IC50: > 10 µM

## CC1COCCN1c1cc(C2(S(C)(=N)=O)CC2)nc(-c2ccnc3[nH]ccc23)n1 (stereo unspecified) + CNC(=O)c1ccc(Nc2nc(OC3CCCC3)c3c(-c4ccc5nc(C)oc5c4)c[nH]c3n2)c(OC)c1
[1]
  IC50: 9.04 µM
[2]
  IC50: 8.71 µM
[3]
  IC50: 6.66 µM
[4]
  IC50: 5.52 µM
[5]
  IC50: 3.24 µM
[6]
  IC50: 4.41 µM
[7]
  viability, T/C: 90%
[8]
  viability, T/C: 103%
[9]
  viability, T/C: 77.8%
[10]
  viability, T/C: 87.5%
[11]
  viability, T/C: 89.7%
[12]
  viability, T/C: 46.2%
[13]
  viability, T/C: 76.6%
[14]
  viability, T/C: 76.9%
[15]
  viability, T/C: 71.6%
[16]
  viability, T/C: 70.1%
[17]
  viability, T/C: 70.5%
[18]
  viability, T/C: 47.2%
[19]
  viability, T/C: 81.3%
[20]
  viability, T/C: 88.1%
[21]
  viability, T/C: 74%
[22]
  viability, T/C: 76.6%
[23]
  viability, T/C: 68%
[24]
  viability, T/C: 40.3%
[25]
  viability, T/C: 86.4%
[26]
  viability, T/C: 59.8%
[27]
  viability, T/C: 61.8%
[28]
  viability, T/C: 74.1%
[29]
  viability, T/C: 61.7%
[30]
  viability, T/C: 36.8%
[31]
  viability, T/C: 72.8%
[32]
  viability, T/C: 77.6%
[33]
  viability, T/C: 82.5%
[34]
  viability, T/C: 70.3%
[35]
  viability, T/C: 50.8%
[36]
  viability, T/C: 30.5%
[37]
  viability, T/C: 69.5%
[38]
  viability, T/C: 69.3%
[39]
  viability, T/C: 69.2%
[40]
  viability, T/C: 63.8%
[41]
  viability, T/C: 59.6%
[42]
  viability, T/C: 29%
